Experimental data taken from PubChem BioAssay (NCI).
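Grown in 96-well plates, cells were treated for 48 hours with each compound at five concentrations. Insufficient inhibition: endpoint recorded as highest concentration tested. GI50: concentration for 50% inhibition of growth. The concentration for full growth arrest is given as TGI.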

What was measured:
Assay in all cases: DTP human tumour cell line panel, 48 h
A498 renal = tested on: A498 renal
CCRF-CEM leukemia = tested on: CCRF-CEM leukemia
OVCAR-3 ovarian = tested on: OVCAR-3 ovarian
SF-268 CNS = tested on: SF-268 CNS
HL-60(TB) leukemia = tested on: HL-60(TB) leukemia
MALME-3M melanoma = tested on: MALME-3M melanoma
MOLT-4 leukemia = tested on: MOLT-4 leukemia
DU-145 prostate = tested on: DU-145 prostate
MCF7 breast = tested on: MCF7 breast
MDA-MB-231 breast = tested on: MDA-MB-231 breast

| Structure (SMILES) | TGI (A498 renal) | TGI (CCRF-CEM leukemia) | TGI (OVCAR-3 ovarian) | TGI (SF-268 CNS) | TGI (HL-60(TB) leukemia) | TGI (MALME-3M melanoma) | TGI (MOLT-4 leukemia) | TGI (DU-145 prostate) | TGI (MCF7 breast) | TGI (MDA-MB-231 breast) | GI50 (A498 renal) | GI50 (CCRF-CEM leukemia) | GI50 (HL-60(TB) leukemia) | GI50 (MALME-3M melanoma) | GI50 (MCF7 breast) | GI50 (MDA-MB-231 breast) | GI50 (MOLT-4 leukemia) | GI50 (OVCAR-3 ovarian) | GI50 (SF-268 CNS) | GI50 (DU-145 prostate) |
| --- | --- | --- | --- | --- | --- | --- | --- | --- | --- | --- | --- | --- | --- | --- | --- | --- | --- | --- | --- | --- |
| CCN(CC)CCCNc1nccc2c(C)c3c(cc12)c1cnccc1n3C | 2.61 µM | 0.415 µM | 0.735 µM | 1.69 µM | – | – | – | – | – | – | – | – | – | – | – | – | – | – | – | – |
| NCCSSCc1ccccc1CSSCCN | > 100 µM | – | > 100 µM | > 100 µM | 29.6 µM | > 100 µM | > 100 µM | – | – | – | – | – | – | – | – | – | – | – | – | – |
| N#C/C(=C\c1cc(O)cc(O)c1)C(N)=O | > 100 µM | > 100 µM | > 100 µM | > 100 µM | – | > 100 µM | > 100 µM | – | – | – | – | – | – | – | – | – | – | – | – | – |
| Cc1nc2sccn2c1C(=O)NN | – | > 100 µM | > 100 µM | > 100 µM | > 100 µM | > 100 µM | > 100 µM | – | – | – | – | – | – | – | – | – | – | – | – | – |
| COc1ccc(C(c2ccccc2)(c2ccc(OC)cc2)N2C(=O)NC3C(CCCCC(=O)NCCCCCCOP(OCCC#N)N(C(C)C)C(C)C)SCC32)cc1 (configuration not stated) | 35 µM | 25.6 µM | 28.1 µM | 30.6 µM | 32.1 µM | 33.5 µM | 28.5 µM | – | – | – | – | – | – | – | – | – | – | – | – | – |
| O=C(C(=O)c1cc2ccccc2[nH]1)c1cc2ccccc2[nH]1 | > 347 µM | > 347 µM | 95.7 µM | > 347 µM | > 347 µM | > 347 µM | > 347 µM | – | – | – | – | – | – | – | – | – | – | – | – | – |
| O=C1[C@H]2ON(c3ccccc3)C(c3ccc([N+](=O)[O-])cc3)[C@H]2C(=O)N1c1ccc(Cc2ccc(N3C(=O)[C@@H]4ON(c5ccccc5)C(c5ccc([N+](=O)[O-])cc5)[C@@H]4C3=O)cc2)cc1 (some centres not stated) | > 100 µM | > 100 µM | > 100 µM | > 100 µM | > 100 µM | > 100 µM | > 100 µM | – | – | – | – | – | – | – | – | – | – | – | – | – |
| CCC[C@H]1O[C@@H]2CC(=O)O[C@@H]2C2=C1C(=O)C=CC2=O | > 70.3 µM | > 47.9 µM | 28.5 µM | 18.7 µM | 37.7 µM | 32.3 µM | 8.98 µM | – | – | – | – | – | – | – | – | – | – | – | – | – |
| C=C(C)[C@H]1CC[C@@]2(C)C(C1)[C@H](C)CC[C@@H]2O (some centres not stated) | > 100 µM | > 100 µM | > 100 µM | > 100 µM | – | > 100 µM | > 100 µM | – | – | – | – | – | – | – | – | – | – | – | – | – |
| C=CCNC(=O)NCCCCC(NC(C)=O)C(=O)NCc1ccccc1 (configuration not stated) | > 100 µM | > 100 µM | > 100 µM | > 100 µM | > 100 µM | > 100 µM | > 100 µM | – | – | – | – | – | – | – | – | – | – | – | – | – |
| OCC1C(OCc2ccccc2)C(OCc2ccccc2)C(OCc2ccccc2)CN1Cc1ccccc1 (configuration not stated) | – | > 100 µM | > 100 µM | > 100 µM | – | 91.5 µM | > 100 µM | > 100 µM | 43.9 µM | > 100 µM | – | – | – | – | – | – | – | – | – | – |
| C=CSCCC(N)C(=O)O (configuration not stated) | > 100 µM | > 100 µM | > 100 µM | > 100 µM | > 100 µM | > 100 µM | > 100 µM | – | – | – | – | – | – | – | – | – | – | – | – | – |
| CC(C)(O)C(O)COc1c2c(cc3oc(=O)ccc13)OCO2 (configuration not stated) | > 100 µM | > 100 µM | > 100 µM | > 100 µM | > 100 µM | > 100 µM | > 100 µM | – | – | – | – | – | – | – | – | – | – | – | – | – |
| C=C[C@@H](C)[C@]1(C(=O)OC)CCCC12OCCO2 | > 100 µM | > 100 µM | > 100 µM | > 100 µM | > 100 µM | > 100 µM | > 100 µM | – | – | – | – | – | – | – | – | – | – | – | – | – |
| C[C@@H](Oc1cc(-n2cnc3ccc(OC4CCN(C)CC4)cc32)sc1C(N)=O)c1ccccc1Cl | 0.301 µM | 4.19 µM | 3.2 µM | 4.69 µM | 2.92 µM | 7.89 µM | 5.19 µM | – | 3.92 µM | 0.53 µM | 0.0403 µM | 0.00953 µM | 0.00871 µM | 3.89 µM | 0.00884 µM | 0.0225 µM | 0.0123 µM | 0.00858 µM | 0.022 µM | – |
| OC(CNc1ccnc2cc(Cl)ccc12)CNc1ccnc2cc(Cl)ccc12 | 25.3 µM | – | 3.42 µM | – | 3.79 µM | – | – | 3.76 µM | – | 3.44 µM | 11 µM | – | 1.82 µM | – | – | 1.73 µM | – | 1.81 µM | – | 1.96 µM |
| COc1cc(C2C(Cl)C(=O)N2NC(=O)Cc2ccccc2)cc(Br)c1O (configuration not stated) | – | > 100 µM | > 100 µM | > 100 µM | > 100 µM | > 100 µM | > 100 µM | – | – | – | – | – | – | – | – | – | – | – | – | – |
| NC(=O)NNC(=O)CCn1[nH]c(=O)c(Cl)c(Cl)c1=O | > 100 µM | > 100 µM | > 100 µM | > 100 µM | > 100 µM | > 100 µM | – | – | – | – | – | – | – | – | – | – | – | – | – | – |
